{
  "source": "paper PMC9946977",
  "about": "“Identification of linderalactone as a natural inhibitor of SHP2 to ameliorate CCl4-induced liver fibrosis” (Frontiers in Pharmacology, 2023)",
  "key": {"[1]": {"tested_on": "CCl4-induced liver fibrosis", "test": "CCl4-induced liver fibrosis mouse model: liver injury and fibrosis", "format": "in vivo, C57BL/6 mice", "conditions": "CCl4 mice", "description": "C57BL/6 mice (20 ± 2 g) were obtained from Hangzhou Medical College Experimental Animal Center (Hangzhou, China). The animals were maintained under controlled temperature (22°C ± 1°C), humidity (50%), and light (12 h light/12 h dark). The animals were fed a standard laboratory diet and provided with free access to tap water. All animals received humane care according to institutional animal care guidelines approved by the Experimental Animal Ethical Committee of Hangzhou Medical College. Forty mice were randomly divided into six groups: (1) vehicle control (n = 7); (2) CCl4 model (n = 7); (3) CCl4 + LIN (20 mg/kg) (n = 7); (4) CCl4 + LIN (40 mg/kg) (n = 7); (5) LIN (40 mg/kg) (n = 7); and (6) CCl4 + silymarin (SIL) (200 mg/kg) (n = 5). LIN and SIL were dissolved in 0.5% CMC-Na solution. Mice were administered LIN or SIL (intragastric administration, i.g.) once per day and CCl4 (intraperitoneal injection, i.p.; mixed 1:3 in olive oil, 2 mL/kg) twice per week for 4 weeks. Mice in the vehicle control group received olive oil (i.p. twice a week, 4 weeks) and 0.5% CMC-Na (i.g. every day, 4 weeks). After treatment, the mice were sacrificed, and plasma and liver tissues were collected and further analysed.\nSerum was collected from blood samples after centrifugation at 860 × g for 15 min. Serum ALT (Nanjing Jiancheng Bioengineering Institute, C010-2-1) and AST (Nanjing Jiancheng Bioengineering Institute, C009-2-1) activities were measured using kits, according to the manufacturer’s instructions. Liver hydroxyproline content was determined using the alkaline hydrolysis method, as described in the kits. Serum levels of laminin (LN) were measured using ELISA kits, according to the manufacturer’s instructions (Shanghai YANJIN Biological Technology Co., LTD, F12019).\nTotal RNA was extracted from liver tissues and LX-2 cells using the TRIzol reagent. cDNA was synthesised using a PrimeScript RT Master Mix kit. Real-time PCR was performed using SYBR Green premix according to the manufacturer’s instructions. Relative expression of target genes was normalised to actin, analysed by the delta-delta-CT method and given as a ratio compared with the vehicle control. Primer sequences used in this study are listed in Supplementary Material.\nA sample of the liver was fixed in 10% phosphate-buffered saline (PBS)-formalin solution and embedded in paraffin. Samples were sectioned (5 μm) and stained with haematoxylin-eosin (H&E) for histological observation of liver injury and stained with Masson’s trichrome and Sirius red to observe collagen deposition in the liver."}, "full-length SHP2": {"molecular_target": "T1, full-length SHP2 (Homo sapiens, UniProt Q06124)", "T1 construct": "used for the expression and purification of the full-length SHP2; made in house; host or cells: E. coli (similar protocol as for SHP2-PTP)", "T1 sequence (Q06124 1-593)": "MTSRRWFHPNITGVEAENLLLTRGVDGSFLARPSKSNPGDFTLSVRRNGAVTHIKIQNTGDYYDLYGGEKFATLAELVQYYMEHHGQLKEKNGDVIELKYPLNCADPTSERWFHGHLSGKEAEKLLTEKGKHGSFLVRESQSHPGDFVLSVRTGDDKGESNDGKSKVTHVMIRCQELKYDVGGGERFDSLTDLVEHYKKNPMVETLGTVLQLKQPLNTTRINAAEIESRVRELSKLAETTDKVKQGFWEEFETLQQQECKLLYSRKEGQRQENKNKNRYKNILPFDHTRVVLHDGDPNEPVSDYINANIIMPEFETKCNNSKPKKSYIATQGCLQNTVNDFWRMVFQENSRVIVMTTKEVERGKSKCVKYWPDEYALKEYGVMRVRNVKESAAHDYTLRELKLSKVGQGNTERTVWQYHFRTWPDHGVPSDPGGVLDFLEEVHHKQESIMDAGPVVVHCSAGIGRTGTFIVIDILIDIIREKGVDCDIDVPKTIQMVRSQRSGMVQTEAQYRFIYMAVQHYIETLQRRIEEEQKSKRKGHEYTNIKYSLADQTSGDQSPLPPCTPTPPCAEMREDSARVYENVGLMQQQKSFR", "test": "full-length SHP2 inhibition assay (DiFMUP, pIRS-1 activated)", "format": "biochemical", "conditions": "activating peptide p-IRS-1 supplemented; read-out: IC50 on full length SHP2 (SHP2-FL)", "description": "Cell pellets were collected and suspended in a buffer of 50 mM Tris-HCl (Ph = 8.5), 150 mM NaCl supplemented with 10% glycerol, and lysed by homogeniser (JN-BIO, China). After centrifugation, the collected supernatants were diluted with a Tris-HCl buffer (pH = 8.5) containing 50 mM imidazole and 150 mM NaCl and then loaded onto a Ni-NTA column (#88221, Thermo). The bound SHP2 protein was eluted with a buffer containing 150 and 300 mM imidazole. The pooled protein was loaded onto a HiTrap Q column after dilution in 25 mM Tris-HCl buffer. After elution using a linear gradient of NaCl (0–0.5 M), peak fractions containing the SHP2 protein were concentrated and applied to a gel filtration Superdex 200 column (GE Healthcare). Purified SHP2-PTP proteins were flash-frozen and stored. Similar expression and purification protocols were used for the expression and purification of the full-length SHP2 and SHP2-PTP ^K366A/Q510A double mutants.\nA surrogate phosphatase substrate, 6,8-difluoro-4-methylumbelliferyl phosphate (DiFMUP, Thermo Fisher, #D22065), was used to monitor the catalytic activity of SHP2 in a prompt fluorescence assay format. […] The signals were read on a plate reader (SpectraMax iD5, Molecular Devices). […] The inhibitor dose-response curves were evaluated using a normalised IC50 regression curve fitting with control-based normalisation. […]"}, "[2]": {"conditions": "LIN 20 and 40 mg/kg i.g. once per day, 4 weeks, p < 0.05"}, "[3]": {"conditions": "LIN 20 and 40 mg/kg, dose-dependent"}},
  "data": [
    {"smiles": "C/C1=C\\CCC2=C[C@@H](OC2=O)c2c(C)coc2C1", "note": "[LIN, linderalactone]", "values": [
      {"measurement": "hepatic Col1a1 mRNA level", "setting": "[1]; LIN 20 mg/kg", "value": "significantly reversed"},
      {"measurement": "hepatic Col3a1 mRNA level", "setting": "[1]; LIN 20 mg/kg", "value": "significantly reversed"},
      {"measurement": "collagen deposition (Masson's trichrome, Sirius red)", "setting": "[1]; LIN 40 mg/kg", "value": "mild collagen deposition in the liver without bridging fibrosis"},
      {"measurement": "serum ALT level", "setting": "[1]; [2]", "value": "significantly reduced"},
      {"measurement": "serum AST level", "setting": "[1]; [2]", "value": "significantly reduced"},
      {"measurement": "liver hydroxyproline level", "setting": "[1]; [3]", "value": "decreased"},
      {"measurement": "serum laminin level", "setting": "[1]; [3]", "value": "decreased"},
      {"measurement": "CCl4-induced liver damage (H&E: immune cell infiltration, swelling, necrosis of hepatocytes)", "setting": "[1]; LIN treatment", "value": "ameliorated"},
      {"measurement": "extent of collagen deposition (Masson's trichrome, Sirius red)", "setting": "[1]; LIN, dose-dependent", "value": "ameliorated"},
      {"measurement": "IC50", "setting": "full-length SHP2", "value": 1980, "unit": "nM"}
    ]}
  ]
}
